Data on five compounds can be found in ChEMBL document CHEMBL3430912, “GSK Tres Cantos Anti-Kinetoplastid Screening (TCAKS) Data”.

Data set [1] relates to Trypanosoma cruzi. Briefly: GSK_TCAKS: pIC50 Trypanosoma cruzi viability assay using beta-GAL activity. This assay was run at single shot at 5uM compound concentration per well. The biological reagents consisted of NIH-3T3 host cells and trypomastigotes parasitic cells; both cell types were set to a 3.3 * 10^5 cells/mL dilution in assay DMEM by means of a CASY cell counter device using a 60um capillary. 6 uL of the mixture were dispensed per well (about 1 * 10^3 host-cells and 1 * 10^3 parasites) with a Multidrop Combi dispenser. […] In all wells, the percentage of DMSO never exceeded 0.5%. Plates incubated for four days at 37C, 5% CO2. The substrate used for the assay fluorescence intensity (FLINT) readout was resorufin-beta-D-galactopiranoside (Sigma-Aldrich) at 5uM per well. It was diluted in PBS supplemented with the soft detergent Igepal (Fluka). The following applies: Tulahuen, NIH3T3. It counts as functional, organism-based, Mus musculus.

For data set [2], the system named is Trypanosoma cruzi. Briefly: (§1) GSK_TCAKS: pIC50 Trypanosoma cruzi Imaging: Infected Cells. […] Cells were then washed once with PBS before infection. T. cruzi trypomastigotes, collected at days 5 to 8 after infection from LLC-MK2 parasite infected cultures, were allowed to swim out for 4h at 37C from a centrifuged pellet (2,500 rpm/10 min/room temperature). Trypomastigotes were then collected and counted in a CASY Cell Counter. Trypomastigotes, in supplemented DMEM, were added to H9c2 cultures in a multiplicity of infection of 1 and incubated for 18 h. Cells were washed once with PBS before incubation of the infected H9c2 monolayer with trypsin (Life-Technologies) to detach cells from the flask. Cells were counted in a CASY Cell Counter using a 150 um capillary and their density set at 5 * 10^4 cells per mL in supplemented assay DMEM. Infected H9c2 were dispensed into 384-well poly-lysine coated assay plates at 50uL per well using a Multidrop Combi dispenser. After seeding them, the plates were incubated at 37C, 5% CO2 for 72h. Cultures were then fixed and stained by addition of 50 uL of a solution containing 8% formaldehyde and 4 uM DRAQ5 DNA dye (BioStatus, UK) per well. […] Five images were collected per well for reliable statistical analysis. Automated image analysis was performed with a script developed on Acapella High Content Imaging and Analysis Software (PerkinElmer). Output: percentage of infected cells per well as a second infection marker. It counts as functional, organism-based, Rattus norvegicus. The note with it: H9c2, 4 h.

Data set [3] has as its system Trypanosoma cruzi. Briefly: GSK_TCAKS: pIC50 Trypanosoma cruzi Imaging: Amastigotes/Cell. […] Cells were then washed once with PBS before infection. T. cruzi trypomastigotes, collected at days 5 to 8 after infection from LLC-MK2 parasite infected cultures, were allowed to swim out for 4h at 37C from a centrifuged pellet (2,500 rpm/10 min/room temperature). Trypomastigotes were then collected and counted in a CASY Cell Counter. Trypomastigotes, in supplemented DMEM, were added to H9c2 cultures in a multiplicity of infection of 1 and incubated for 18 h. Cells were washed once with PBS before incubation of the infected H9c2 monolayer with trypsin (Life-Technologies) to detach cells from the flask. Cells were counted in a CASY Cell Counter using a 150 um capillary and their density set at 5 * 10^4 cells per mL in supplemented assay DMEM. Infected H9c2 were dispensed into 384-well poly-lysine coated assay plates at 50uL per well using a Multidrop Combi dispenser. After seeding them, the plates were incubated at 37C, 5% CO2 for 72h. Cultures were then fixed and stained by addition of 50 uL of a solution containing 8% formaldehyde and 4 uM DRAQ5 DNA dye (BioStatus, UK) per well. […] Five images were collected per well for reliable statistical analysis. Automated image analysis was performed with a script developed on Acapella High Content Imaging and Analysis Software (PerkinElmer). Output: number of amastigotes per cell as infection level measurement. It counts as functional, organism-based, Rattus norvegicus. The following applies: H9c2, 4 h.

The subject of data set [4] is Trypanosoma cruzi. Described as §1, with “H2C9” for “Trypanosoma cruzi”, “H9c2 Host Cardiomyocytes.” for “Infected Cells.”, “Number” for “percentage”, “H9c2 Host Cardiomyocytes nuclei to determine drug-related cytotoxicity.” for “infected cells per well as a second infection marker.”. The note with it: H9c2, 4 h. It counts as functional, organism-based, Rattus norvegicus.

The subject of data set [5] is Leishmania donovani. Briefly: GSK_TCAKS: pIC50 Leishmania donovani viability assay using fluorescence intensity. Assay plates (1536-well) were prepared by adding 30nL per well of compound. For single shot assay, the final compound concentration was 5uM. […] Briefly, eGFP LdBOB axenic amastigotes were harvested, fixed and counted in a CASY cell counter (Roche-Applied Science). A final concentration of 1.5 * 10^5 cells per well were prepared in amastigote media containing 500 U/mL penicillin/streptomycin (Invitrogen) and 6uL was dispensed to each experimental well using a Multidrop Combi dispenser (Thermo Scientific). 6uL of assay media was dispensed to control columns used as reference for 100% compound response. Following incubation for 72 h at 37C, 5% CO2, 2 uL of resazurin was added to each well at a final concentration of 0.5 mM in phosphate buffered saline (PBS) with IGEPAL (Sigma-Aldrich), 0.05% (v/v). It counts as functional, organism-based.

The subject of data set [6] is Leishmania donovani. Briefly: GSK_TCAKS: pIC50 Leishmania donovani Imaging: Infected Macrophages. Assay plates (384-well) were prepared by adding 250nL of compound to each well. For single shot assay, the final compound concentration was 5 uM. […] Automated image analysis was performed with a script developed on Acapella High Content Imaging and Analysis Software (PerkinElmer). Output: Percent of infected macrophage cells were reported for each well. The format is functional, organism-based, Homo sapiens. The following applies: THP-1.

Data set [7] has as its system Leishmania donovani. Briefly: GSK_TCAKS: pIC50 Leishmania donovani Imaging: Amastigotes/Macrophages. Assay plates (384-well) were prepared by adding 250nL of compound to each well. For single shot assay, the final compound concentration was 5 uM. […] Automated image analysis was performed with a script developed on Acapella High Content Imaging and Analysis Software (PerkinElmer). Output: Average number of amastigotes per macrophage cell were reported for each well. The format is functional, organism-based, Homo sapiens. The following applies: THP-1.

Data set [8] concerns Leishmania donovani. Nature of the data set: GSK_TCAKS: pIC50 Leishmania donovani Imaging: THP-1 Host Macrophages. Assay plates (384-well) were prepared by adding 250nL of compound to each well. For single shot assay, the final compound concentration was 5 uM. […] Automated image analysis was performed with a script developed on Acapella High Content Imaging and Analysis Software (PerkinElmer). Output: THP-1 cell count were reported for each well. The format is functional, organism-based, Homo sapiens.

The test system of data set [9] is Trypanosoma brucei brucei. Nature of the data set: GSK_TCAKS: pIC50 Trypanosoma brucei viability assay using fluorescence intensity. Assay plates (1536-well) were prepared by dispensing 25nL of compound solution per well using an Echo acoustic dispenser (Labcyte). It counts as functional, organism-based. The note with it: Lister 427, 2 h.
Data set [10] concerns Trypanosoma brucei brucei. Briefly: GSK_TCAKS: pIC50 Trypanosoma brucei viability assay using luminiscence. Assay plates (1536-well) were prepared. T. brucei cultures were harvested and counted in a CASY cell counter. A parasite suspension was prepared at a final concentration of 5 * 10^4 cells/mL in complete HMI9 medium and 6uL was dispensed to all wells containing compounds using a Multidrop Combi dispenser. 6uL of HMI9 media with 0.4% DMSO were dispensed to control columns. Plates were incubated for 24 h at 37C, 5% CO2 then tempered for 10 min at room temperature. ATP content was quantified by adding 4 uL of CellTiter-Glo Reagent (Promega) according to the manufacturer's instructions. Luminescence was measured using a ViewLux. It counts as functional, organism-based. The note with it: Lister 427, CASY.

Data set [11] can be described thus: GSK_TCAKS: pIC50 HepG2 human cell line viability assay using luminiscence. […] Seeding density was checked to ensure that new mono-layers were not more than 50% confluent at the time of harvesting. Cell suspension was added to 500 mL of the same medium at a final density of 1.2 * 10^5 cells/mL. This cell suspension was dispensed (25 uL, 3000 cells per well) into 384-well clear-bottom plates using a Multidrop Combi dispenser. Prior to addition of the cell suspension, the screening compounds (250 nL) were pre-dispensed into the plates with an Echo liquid handler. Plates were incubated for 48 h at 37C, 5% CO2. After incubation, plates equilibrated at room temperature for 30 min before proceeding to develop the luminescent signal. The signal developer, CellTiter-Glo Reagent, was allowed to equilibrate at room temperature for 30 min and added to the plates (25uL per well) using a Multidrop Combi dispenser. Plates were left for 10 min at room temperature for stabilization and then read using a ViewLux. It counts as toxicity, cell-based.

The target of data set [12] is Sterol 14-alpha demethylase (Trypanosoma cruzi (strain CL Brener), UniProt Q7Z1V1). Briefly: GSK_TCAKS: pIC50 CYP51 from Trypanosoma cruzi. The format is functional.
Sequence of Sterol 14-alpha demethylase (Q7Z1V1 whole entry): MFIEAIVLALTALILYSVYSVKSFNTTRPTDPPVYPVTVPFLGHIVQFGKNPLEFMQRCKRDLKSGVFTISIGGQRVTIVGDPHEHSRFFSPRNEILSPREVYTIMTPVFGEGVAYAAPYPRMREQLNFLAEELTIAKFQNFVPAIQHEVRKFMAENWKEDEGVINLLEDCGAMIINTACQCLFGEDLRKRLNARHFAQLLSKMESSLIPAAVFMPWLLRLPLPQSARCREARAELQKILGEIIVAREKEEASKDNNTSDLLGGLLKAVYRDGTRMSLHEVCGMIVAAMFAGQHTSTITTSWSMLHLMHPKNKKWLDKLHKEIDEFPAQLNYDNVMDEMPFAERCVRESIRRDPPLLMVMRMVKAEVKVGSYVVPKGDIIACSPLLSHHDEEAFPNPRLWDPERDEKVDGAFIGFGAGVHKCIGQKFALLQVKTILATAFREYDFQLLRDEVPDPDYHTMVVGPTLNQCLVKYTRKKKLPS

On to `Cc1ccccc1NS(=O)(=O)c1ccc2[nH]cc(C(=O)NC3CCCCC3)c(=O)c2c1`, for which the concentration for half-maximal inhibition (IC50) in data set [1] was 10 µM; in data set [2] it was 15.8 µM; in [3], 10 µM; in [4] it was 25.1 µM; in data set [5], above 50.1 µM; in data set [6], 39.8 µM. For the same compound, the IC50 in data set [7] was 39.8 µM; in data set [8], 31.6 µM; in data set [9], 0.251 µM; in data set [10], 0.316 µM; in [12] it was 10 µM. This compound gave an IC50 at 48 h in [11] of 31.6 µM.

Turning to `Cc1ccc(NC(=O)c2ccc([N+](=O)[O-])s2)cc1S(=O)(=O)N1CCOCC1`, the IC50 in data set [1] is 0.2 µM; in data set [2], 0.398 µM; in data set [3], 0.251 µM; in data set [4] it was 5.01 µM; in data set [5] it was 2 µM; in data set [6] it was 3.16 µM. For the same compound, the IC50 in [7] is 2 µM; in data set [8], 39.8 µM; in [9] it was 0.251 µM; in [10] it was 0.794 µM; in [12], 20 µM. Also, in [11], half-maximal inhibition (IC50 at 48 h) required 15.8 µM.

As for `NC(=O)c1ccsc1NC(=O)c1ccc([N+](=O)[O-])s1`, the IC50 in [1] was 0.0794 µM; in [2], 0.126 µM; in data set [3], 0.1 µM; in data set [4], above 50.1 µM; in data set [5], 0.316 µM; in data set [6] it was 1.58 µM. Moreover, the IC50 was 1.26 µM in data set [7]; 12.6 µM in [8]; 0.2 µM in data set [9]; 1.58 µM in [10]; above 100 µM in data set [12]. The IC50 at 48 h in data set [11] is above 100 µM.

Turning to `COc1ccc(OC)c(NC(=O)c2ccc([N+](=O)[O-])o2)c1`, the IC50 in data set [1] was 3.16 µM; in data set [2] it was 12.6 µM; in data set [3] it was 7.94 µM; in data set [4], 3.98 µM; in [5], 25.1 µM; in data set [6], 31.6 µM. Besides, the IC50 in data set [7] is 15.8 µM; in [8] it was 20 µM; in [9] it was 0.0158 µM; in [10], 0.0631 µM; in data set [12], 10 µM. Further, half-maximal inhibition in data set [11] (IC50 at 48 h) required 20 µM.

On to `COCCn1c(-c2ccc3c(c2)OCO3)cnc1NCc1ccccc1OC`, for which the IC50 in data set [1] was 7.94 µM; in data set [2], 20 µM; in [3], 7.94 µM; in data set [4] it was 39.8 µM; in data set [5] it was 12.6 µM; in [6], 10 µM. Also, the IC50 is 5.01 µM in [7]; 39.8 µM in data set [8]; 20 µM in data set [9]; 25.1 µM in data set [10]; 5.01 µM in data set [12]. The compound further gave a 50% inhibitory concentration (IC50) at 48 h in [11] of 39.8 µM.
